The target in the test is T1, Histidinol dehydrogenase (Brucella suis biovar 1 (strain 1330), UniProt Q8G2R2).
T1 sequence (Q8G2R2 whole entry): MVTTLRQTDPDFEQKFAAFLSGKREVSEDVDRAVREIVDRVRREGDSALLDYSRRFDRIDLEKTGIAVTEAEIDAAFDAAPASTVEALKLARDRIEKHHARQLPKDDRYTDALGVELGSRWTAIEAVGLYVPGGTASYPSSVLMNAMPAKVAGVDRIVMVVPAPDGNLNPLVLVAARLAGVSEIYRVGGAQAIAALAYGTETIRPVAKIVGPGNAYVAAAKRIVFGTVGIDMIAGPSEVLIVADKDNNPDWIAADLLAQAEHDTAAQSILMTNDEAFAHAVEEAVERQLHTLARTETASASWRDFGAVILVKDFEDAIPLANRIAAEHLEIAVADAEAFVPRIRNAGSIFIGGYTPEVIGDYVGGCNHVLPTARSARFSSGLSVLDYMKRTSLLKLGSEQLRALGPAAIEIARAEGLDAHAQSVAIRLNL
Description: Inhibition of Brucella suis 1330 His6-tagged HDH expressed in Escherichia coli BL21 (DE3) using L-histidinol as substrate assessed as NADH formation preincubated for 5 mins followed by substrate addition.

SMILES strings stand for the structures.

For orientation: IC50 means the concentration that inhibits the measured activity by half. Take `N[C@@H](Cc1c[nH]cn1)C(=O)CS`: the IC50 amounted to 2.1 µM.

Regarding `N[C@@H](Cc1c[nH]cn1)C(=O)CSc1ccccc1`, the IC50 amounted to 7.1 µM.

For the compound `Cc1ccc(SCC(=O)[C@@H](N)Cc2c[nH]cn2)cc1`, the IC50 is 39.5 µM.

Regarding `N[C@@H](Cc1c[nH]cn1)C(=O)CSc1ccc(F)cc1`, the IC50 was 3.1 µM.

With `N[C@@H](Cc1c[nH]cn1)C(=O)CSc1ccc2ccccc2c1`, the IC50 came to 3.3 µM.

Turning to `N[C@@H](Cc1c[nH]cn1)C(=O)CSc1ccc(Br)cc1`, the IC50 came out at 2.8 µM.

In the case of `N[C@@H](Cc1c[nH]cn1)C(=O)CSc1c(F)c(F)c(F)c(F)c1F`, the IC50 was found to be 19.2 µM.

Turning to `N[C@@H](Cc1c[nH]cn1)C(=O)CO`, the IC50 stood at 0.0243 µM.

Consider `N[C@@H](Cc1c[nH]cn1)C(=O)COc1ccccc1`, for which the IC50 turned out to be 3.65 µM.

In the case of `Cc1ccc(OCC(=O)[C@@H](N)Cc2c[nH]cn2)cc1`, the IC50 was 0.208 µM.

With `N[C@@H](Cc1c[nH]cn1)C(=O)COc1ccc(F)cc1`, the IC50 came out at 4.7 µM.

Consider `N[C@@H](Cc1c[nH]cn1)C(=O)COc1ccc2ccccc2c1`, for which the IC50 stood at 0.108 µM.

As to `N[C@@H](Cc1c[nH]cn1)C(=O)COc1ccc(Br)cc1`, the IC50 worked out at 1.6 µM.

`N[C@@H](Cc1c[nH]cn1)C(=O)COc1c(F)c(F)c(F)c(F)c1F`: the IC50 amounted to 2.78 µM.
